The source of these data is patent US12090172B2, “Suicide gene therapeutic agent for brain tumors using pluripotent stem cell” (KEIO UNIVERSITY, priority 2017, dated 2024).

Experiment [1] deals with NS/PCs expressing yCD-UPRT (TSCs (1), lentiviral vector). In words: Cell death induction by 5-FC added to the medium. In kind it is cell-based, human. Conditions: 1 μg/ml 5-FC added to the medium. The text has this:
Secondary to quaternary NS/PCs differentiation-induced from the human iPS cells were collected by a centrifuge, disassembled into single cells using TrypLE Select, suspended in NS medium, inoculated into a low adhesive flask at a concentration of 1×10^5 cells/ml, infected with a CSIV-EF-yCD-UPRT-IRES2-hKO1 lentiviral vector at an MOI (multiplicity of infection) of 1 to 2 and cultured for 7 days with the medium replaced every 3 to 4 days. The obtained NS/PCs were infected with the CSIV-EF-yCD-UPRT-IRES2-hKO1 lentiviral vector at an MOI of 1 to 2 in the same way again to prepare therapeutic stem cells (TSCs (1)), that is, NS/PCs expressing yCD-UPRT. It was confirmed that the cell death of the NS/PCs expressing yCD-UPRT was induced by adding 1 μg/ml 5-FC (fluorocytosine) to the medium.

For experiment [2], the system named is NS/PCs expressing yCD-UPRT (TSCs (2), GAPDH gene region, CRISPR/Cas9). The experiment in a line: Cell death induction by 5-FC added to the medium. It counts as cell-based, human. Conditions: 1 μg/ml 5-FC added to the medium. The protocol: Differentiation induction from iPS cells in which yCD-UPRT was incorporated into the GAPDH gene region to NS/PCs was performed to obtain secondary to quinary NS/PCs (TSCs (2)). Culture was performed with 2 μg/ml blasticidin S always added to the medium. It was confirmed that the cell death of the NS/PCs expressing yCD-UPRT was induced by adding 1 μg/ml 5-FC to the medium.

The subject of experiment [3] is human glioma cells (U87). The experiment in a line: Suicide gene cell therapy with TSCs (1) expressing yCD-UPRT, mixture transplantation model. In kind it is in vivo. Conditions: control group 2: TSC (−)/5FC (+) 5 mg/day, only U87 transplanted.
Experiment [4] has as its system human glioma cells (U87). The experiment in a line: Suicide gene cell therapy with TSCs (1) expressing yCD-UPRT, transplantation model after tumor formation. In kind it is in vivo. Conditions: control group 2: TSC (−)/5FC (+) 5 mg/day, only U87 transplanted. How it is done: First, 1×10^4 cells/2 μl U87-ffLuc was transplanted to the right striate body (2 mm away from the anterior fontanel to the right and 3 mm deep from the brain surface) of each T cell-deficient mouse (female BALB/c nude mouse, 20 g, 6 w) subjected to general anesthesia, and 1×10^6 cells/2 μl TSCs expressing yCD-UPRT (yCD-UPRT is introduced into NS/PCs with the lentiviral vector) were stereotactically transplanted to the same site 5 days later. The take of tumor cells was confirmed 2 days later with an IVIS, that is, an in vivo imaging system, and 500 μl of 5-FC (10 mg/ml) was then intraperitoneally administered to a treated group once per day for 2 weeks (TSC (+)/5-FC (+) 5 mg/day, n=9). Next, 500 μl of 1 M PBS was administered to a control group 1 for 2 weeks in the same way (control group 1: TSC (+)/5-FC (−), n=9). A group to which only U87-ffLuc was transplanted was also generated as another control group, and 500 μl of 5-FC (10 mg/ml) was intraperitoneally administered to this once per day for 2 weeks (control group 2: TSC (−)/5-FC (+) 5 mg/day, n=3). […]
(§1) The survival analysis was performed while the luminescence imaging analysis (IVIS) of tumors was performed chronologically. […]

The test system of experiment [5] is human glioma cells (U87). The experiment in a line: Suicide gene cell therapy with TSCs expressing yCD-UPRT with CRISPR/Cas9, transplantation model after tumor formation. Conditions: control group 2: TSC (−)/5FC (+), only U87 transplanted. In kind it is in vivo, mouse. How it is done:
First, 1×10^4 cells/2 μl U87-ffLuc was transplanted to the right striate body (2 mm away from the anterior fontanel to the right and 3 mm deep from the brain surface) of each T cell-deficient mouse (female BALB/c nude mouse, 20 g, 6 w) subjected to general anesthesia, and 1×10^6 cells/2 μl TSCs expressing yCD-UPRT (yCD-UPRT is introduced into iPS cells with CRISPR/Cas9) were stereotactically transplanted to the same site 5 days later. The take of tumor cells was confirmed 2 days later with an IVIS, that is, an in vivo imaging system, and further 2 days later, 500 μl of 5-FC (10 mg/ml) was intraperitoneally administered to a treated group once per day for 2 weeks (TSC (+)/5-FC (+), n=8). Then, 500 μl of 1 M PBS was administered to a control group 1 for 2 weeks in the same way (control group 1: TSC/5-FC (−), n=7). A group to which only U87-ffLuc was transplanted was also generated as another control group, and 500 μl of 5-FC (10 mg/ml) was intraperitoneally administered to this once per day for 2 weeks (control group 2: TSC (−)/5-FC (+), n=3).
A method for evaluating tumors, the analysis of survival curves and the like were all performed in the same way as the above. […]
as §1

The test system of experiment [6] is human glioma cells (U87). In words: Suicide gene cell therapy with Tet-induced TSCs (3) expressing yCD-UPRT, mixture transplantation model. It counts as in vivo, mouse. Conditions: control group 2: TSC (−)/5-FC (+)/Dox (+), only U87-ffLuc transplanted. The protocol: First, 1×10^5 cells/2 μl U87-ffLuc and 5×10^5 cells/2 μl TSCs (3) (Tet-induced yCD-UPRT was introduced into iPS cells with the lentiviral vector) were mixed and stereotactically transplanted to the right striate body (2 mm away from the anterior fontanel to the right and 3 mm deep from the brain surface) of each T cell-deficient mouse (female BALB/c nude mouse, 20 g, 6 w) subjected to general anesthesia. Then, 500 μl of 5-FC (10 mg/ml) was intraperitoneally administered once per day for 2 weeks from the next day (treated group 1: TSC (+)/5-FC (+)/Dox (+), n=7). Next, 500 μl of 1 M PBS was administered to a control group 1 for 2 weeks in the same way (control group 1: TSC (+)/[…], n=9). A group to which only U87-ffLuc was transplanted was also generated as another control group, and 500 μl of 5-FC (10 mg/ml) was intraperitoneally administered to this once per day for 2 weeks (control group 2: TSC (−)/5-FC (+)/Dox (+), n=4). Feed containing 200 mg/kg of Dox was orally ingested. A method for evaluating tumors, the analysis of survival curves and the like were all performed in the same way as the above. […]
Survival analysis was performed, while the luminescence imaging analysis (IVIS) of the tumors was performed chronologically. […]

Experiment [7] concerns Tet-induced iPS cells expressing yCD-UPRT. In words: Cell death induction by Dox and 5-FC added to the medium. It counts as cell-based, human. Conditions: 1 μg/ml doxycycline (Dox) and 1 μg/ml 5-FC added to the medium. The protocol: Human iPS cells were infected with the CSIV-yCD-UPRT-TRE-EF-KT lentiviral vector at an MOI of around 15 and cultured, the clones were then sorted with a cell sorter to obtain an iPS cell line expressing hKO1 steadily and highly. It was confirmed that the cell death of the Tet-induced iPS cells expressing yCD-UPRT was induced by adding 1 μg/ml doxycycline (Dox) and 1 μg/ml 5-FC to the medium.

In experiment [8] the test system is Tet-induced NS/PCs expressing yCD-UPRT. The experiment is described as above. It counts as cell-based, human. Conditions: 1 μg/ml Dox and 1 μg/ml 5-FC added to the medium. How it is done:
Differentiation induction from the Tet-induced iPS cells expressing yCD-UPRT to NS/PCs was performed to obtain secondary and tertiary Tet-induced NS/PCs expressing yCD-UPRT.

Consider `Nc1nc(=O)[nH]cc1F` [5-FC, 5-fluorocytosine], for which the cell death entry in experiment [1], in experiment [2], in experiment [7] and in experiment [8] was “induced” throughout. Besides, the average survival period with human glioma cells (U87) [3] amounted to 21 days; in the experiment on human glioma cells (U87) [4], 21 days; in the experiment with human glioma cells (U87) [5] it was 21 days; in the experiment with human glioma cells (U87) [6] it was 19 days.
